# Columns and labels:
# [1] = tested on: hippocampal-kindled focal seizures; test: Hippocampal-kindled rat test (focal seizures); format: in vivo, rats; conditions: i.p. injection
# Experimental: Electrodes are implanted into the hippocampus of anesthetized rats, which are then allowed to recover for 1 week. Following the rapid kindling protocol (Lothman et al., Brain Res., 1994. 649:71-84), the rats are stimulated with […] for 10 s, 50 Hz, every 30 min for 6 h on alternate days until they are fully kindled (4-5 stimulus days). After 1 week of rest, the animals are given the same electrical stimulus, which served as a baseline. The animals are pretreated with the test compound (by i.p. injection) and then tested at various intervals. At each time point, the behavioral seizure score and after-discharge duration are recorded. The behavioral seizure scores are scored according to the following criteria (Racine, Electroencephalogr Clin Neurophysiol, 1972. 32(3):281-94): stage 1—mouth and facial clonus; stage 2—stage 1 plus head nodding; stage 3—stage 2 plus forelimb clonus; stage 4—stage 3 plus rearing, and stage 5—stage 4 plus repeated rearing and falling. The after-discharge threshold (ADT) can also be measured in the kindled rat. The ADT is defined as the lowest current at which an after-discharge of at least 4 s is elicited. […] The initial stimulation is conducted at an intensity of 20 μA with 10 μA increments every 1-2 min until an after-discharge was elicited. Fifteen minutes after the predrug threshold determination, a single dose of the test substance is administered to 2 animals in a volume of 0.04 ml/10 g body weight. In this way, the animals serve as their own control. The individual rat ADT is then determined at varying times (i.e., 0.25, 1, 2 and 4 h) after drug administration.
# [2] = tested on: pilocarpine-induced convulsive status epilepticus; test: Pilocarpine rat model (initial qualitative efficacy screen); format: in vivo, Sprague Dawley rats; conditions: i.p., administered after seizure onset, mpk=mg/kg
# Experimental: Compounds are assessed for their ability to halt pilocarpine-induced convulsive status epilepticus (SE). To identify doses of drug to be used in the SE testing, acute motor impairment is assessed following the intraperitoneal (i.p.) administration of doses starting at 100 and 300 mg/kg. Individual Sprague Dawley rats are evaluated for acute toxicity over several time points following administration of test compounds. The results obtained from this initial study determine whether any dose adjustments are required. The behavior of the animals is observed closely and recorded over a four hour period. Routinely, a minimum number of four rats, two per dose are employed in this acute screen.
# To determine if the test substance can halt acute pilocarpine-induced status an initial qualitative efficacy screen is performed. A challenge dose of pilocarpine (50 mg/kg) is administered i.p. and animals observed until the first convulsive (e.g., Stage 3, 4, or 5) seizure (time zero). The seizure severity is determined using the Racine scale. At this point a minimally toxic dose of the candidate drug is administered to a group of 8 male albino Sprague Dawley rats (150-180 g) via the i.p. route of administration. Efficacy is defined by the ability of an investigational drug to halt the further expression of pilocarpine induced convulsive seizures (e.g., Stage 3, 4, or 5). […] In this test, the investigational drug is administered 30 minutes after the first observed convulsive seizure. This is a more severe test of a candidate's ability to halt the induced status. […] A minimum of 4 doses with at least 8 rats per dose are utilized in the quantification study.
# harmaline-induced tremor = test: Harmaline-induced tremor assay; format: in vivo, ICR mice; conditions: mice, harmaline 30 mg/kg s.c.; oral doses noted; p<0.05; mpk=mg/kg
# Text: The harmaline-induced tremor assay is the primary preclinical model of induced tremor. Male ICR mice (10 weeks old) were used in this study. Mice were group housed in OPTI mouse ventilated cages. All animals remained group housed during the duration of the study. All mice were acclimated to the colony room for at least one week prior to testing. During the period of acclimation, mice were examined on a regular basis, handled, and weighed to assure adequate health and suitability. Mice were maintained on a 12/12 light/dark cycle. The room temperature was maintained between 20 and 23° C. with a relative humidity maintained between 30% and 70%. Chow and water were provided ad libitum for the duration of the study. In each test, animals were randomly assigned across treatment groups. Ten mice were tested in each group. […] After habituation, tremor activity of the mice was measured for approximately 8 min. The recorded frequencies (1-64 Hz) of activity and the number of tremor events were captured electronically. Data were analyzed by the tremor monitor software (San Diego Instruments) in a two part process. Using a Fast Fourier Transform (FFT), an output is provided showing the percentage of activity (energy) recorded at each frequency. […] Data were analyzed by analysis of variance (ANOVA) followed by Fisher PLSD post-hoc analysis. […]
SMILES,ED50 [1],Dose at which activity was shown [2] [mpk],active at (dose) [1],Dose showing significant reductions in total tremors (harmaline-induced tremor) [mpk]
"CN(C)c1cn(Cc2c(F)cccc2F)nn1 [Compound 8a, [1-(2,6-difluoro-benzyl)-1H-[1,2,3]triazol-4-yl]-dimethyl-amine]",ED50 25 mpk,65,,
"Fc1cccc(F)c1Cn1cc(N2CCCC2)nn1 [Compound 10f, 1-[(2,6-difluorophenyl)methyl]-4-(pyrrolidin-1-yl)-1H-1,2,3-triazole]",,65,,
"Fc1cccc(F)c1Cn1cc(N2CCOCC2)nn1 [Compound 10a, 4-{1-[(2,6-difluorophenyl)methyl]-1H-1,2,3-triazol-4-yl}morpholine]",ED50 32 mpk,65,,
"N[C@@H](Cc1ccccc1)C(=O)Nc1cn(Cc2c(F)cccc2F)nn1 [Compound 3a, (2S)-2-amino-N-{1-[(2,6-difluorophenyl)methyl]-1H-1,2,3-triazol-4-yl}-3-phenylpropanamide]",,200,active at 200 mpk,
"O=C(Nc1cn(Cc2c(F)cccc2F)nn1)[C@H]1COCCN1 [Compound 3d, (3R)—N-{1-[(2,6-difluorophenyl)methyl]-1H-1,2,3-triazol-4-yl}morpholine-3-carboxamide]",ED50 79 mpk,450,,
"O=C1NCCN1c1cn(Cc2c(F)cccc2F)nn1 [Compound 16a, 1-{1-[(2,6-difluorophenyl)methyl]-1H-1,2,3-triazol-4-yl}imidazolidin-2-one]",,,active at 100 mpk,
"O=C(Nc1cn(Cc2c(F)cccc2F)nn1)[C@@H]1COCCN1 [Compound 3c, (3S)—N-{1-[(2,6-difluorophenyl)methyl]-1H-1,2,3-triazol-4-yl}morpholine-3-carboxamide]",,,active at 50 mpk,
"O=C1OCCN1c1cn(Cc2c(F)cccc2F)nn1 [Compound 15a, 3-{1-[(2,6-difluorophenyl)methyl]-1H-1,2,3-triazol-4-yl}-1,3-oxazolidin-2-one]",,,,50
"O=C1CCCN1c1cn(Cc2c(F)cccc2F)nn1 [Compound 14a, 1-{1-[(2,6-difluorophenyl)methyl]-1H-1,2,3-triazol-4-yl}pyrrolidin-2-one]",,,,50

# Reference: US10138214B2, “Substituted triazoles and methods relating thereto” (Neurocrine Biosciences, Inc., priority 2015, dated 2018)
